Data on two compounds can be found in US20250082766A1, “TREATMENT OF BRAIN TUMORS BY TARGETING THE CHOLESTEROL PATHWAY IN ASTROCYES” (Ramot at Tel-Aviv University Ltd., priority 2022, published 2025).

SMILES strings stand for the structures. Entries after “also recorded” stand apart in the source; their conditions may differ.

One assay relates to GL261-Luc2 glioma (GBM). Description: GL261-Luc2 implanted mice treated with probucol, TMZ or both. Type of assay: in vivo, mouse. To be noted: FIGS. 20A-C.
Assay [1] deals with cholesterol transporter ABCA1 (Homo sapiens, UniProt O95477). Particulars: cited from earlier work.
The next assay concerns GL261 glioma (GBM). Put plainly: Primary GBM model: GL261 intracranially implanted mice treated with Probucol. It counts as in vivo, mouse. To be noted: for tumor growth (IVIS): Probucol 30 mg/kg daily from day 10 (quarter of HED) vs vehicle, FIG. 16B. As to the method: (FIG. 16A) Illustration of the experimental design for primary and recurrent GBM models. (FIGS. 16B-D) WT mice were intracranially (IC) implanted with GL261 cells. Tumor-bearing mice were treated daily, starting at day 10, with Probucol (30 mg/kg) or vehicle. (FIG. 16B) Tumor growth curve as determined by IVIS, (FIG. 16C) mice weight loss, and (FIG. 16D) Kaplan-Meier curves assess overall survival. p-value by Two-way ANOVA. Data represent Mean±SEM, 8 mice/group. (FIG. 16E) Illustration of the predicted effects of probucol or glyburide in the different models/disease stages.
For intracranial mouse glioma, mice were anesthetized, positioned in a Stereotaxic Alignment System, and injected with 1.5×10^4 GL261 or CT-2A cells in 2 μl of DMEM. Injections were made to the right frontal lobe, approximately 2.5 mm lateral and 0.1 mm caudal from bregma at a depth of 3 mm. In-vivo bioluminescence imaging, following XenoLight D-luciferin Potassium Salt administration (150 mg/kg) i.p. administration, was determined using IVIS Spectrum system (PerkinElmer). Ganciclovir (GCV, Cymevene, Roche #SAP-10051872; 25 mg/kg), Diphtheria-toxin (DT, Sigma-Aldrich, #D0564; 1100 ng/mice), or vehicle control (PBS) were administered daily following tumor establishment (day 10), as previously described (Mayo, L., et al. Nat Med (2014) 20: 1147-1156). CD8^+ T cell depletion was performed using an anti-CD8 monoclonal antibody ([…], Bioxcell) or an isotype control monoclonal antibody (2A3, Bioxcell), as previously described (Takenaka, M. C. et al. Control of tumor-associated macrophages and T cells in glioblastoma via AHR and CD39. Nat Neurosci 22, 729-740 (2019)). GBM-bearing mice were intraperitoneally injected (0.1 mg/mouse) with an anti-CD8 or an isotype control mAbs, 1 day before, and 7 days after, GCV administration. CD8 T-cell depletion was validated by FACS analysis using a Sony SH800 FACS instrument (Sony Biotechnology). Data analysis was performed using FlowJo v10 (TreeStar, USA). The following reagents were used for analysis: anti-CD45 (1:100; 30-F11, Biolegend, #103106), anti-CD3[…] (1:50; 145-2C11, Biolegend #100335), and anti-CD8a (1:100; 53-6.7, Biolegend, #100765).
To investigate this hypothesis, C57Bl/6 mice are implanted with GFP^+ luciferase-expressing glioma cells (GL261 or CT-2A), using two subtype models—primary or recurrent GBM/brain tumor resection (as illustrated in FIG. 16A), and are treated daily with probucol, glyburide, or vehicle control, with or without a potent statin (e.g., simvastatin as shown in FIG. 15A). The dosage of the different drugs is optimized based on FDA guidelines for conversions from human-accepted dosages (Table 5 below).
In the primary GBM model (pGBM)—10 days after tumor implantation, the mice are treated with cholesterol-lowering drugs (FIG. 16A). In the recurrent GBM model (rGBM), 12-14 days after inoculation of the mice with the tumor cells, the visible tumor(s) are surgically removed, based on GFP expression, under a stereoscope. The mice are then allowed to recover for a week and then are treated with cholesterol-lowering drugs (FIG. 16A). Of note, tumor formation or recurrence is monitored by bioluminescence (BLI) signals from the tumor cells on in-vivo imaging system (IVIS) spectrum and quantified with Living Image software. Mice are monitored for tumor growth, peritumoral brain edema formation, and mouse survival until the experimental endpoint (extreme lethargy or body weight reduction of greater than 20%), or are euthanized seven days after treatment with the cholesterol-lowering drugs to assess tumor burden, angiogenesis, BBB stability, and immunomodulatory activity in-situ. Tumor volume is evaluated in-vivo by determining tumor BLI, and by histopathology analysis postmortem. Peritumoral brain edema is evaluated in-vivo using IVISense™ Edema (Superhance™ 680) fluorescent probe. […]

The test system of a further assay is primary astrocytes. Put plainly: Cell viability assay (Annexin V/DAPI FACS) of primary astrocytes. Also on record: dose or concentration left out as unconfirmed. It counts as cell-based, mouse. To be noted: lovastatin, 3 day treatment; FIGS. 11G-H. The text has this: FIGS. 11A-K illustrate that astrocyte-derived cholesterol supports glioma survival. (FIG. 11A) Representative immunofluorescence images of cholesterol accumulation (Filipin III, white) in the GBM tumor (tdTomato^+ GL261 cells, red), Tumor margins are indicated in yellow (n=3 biologically independent samples). Scale bars, 400 μm (right), 150 μm (left). (FIGS. 11B-E) Real-time changes in the ECAR (FIGS. 11B-C) and OCR (FIGS. 11D-E) of CT-2A glioma cells, cultured in media supplemented with full serum (FCS) or lipoprotein-deprived serum (LPDS) for 18 hours and measured using Seahorse. […] Glycolysis, glycolytic capacity and glycolytic reserve are extracted from ECAR reading, and basal respiration, ATP production, Maximal respiration, and spare respiratory capacity were determined based on OCR. […] (FIGS. 11I-J) Representative immunoblot and quantification analyses comparing LDLR protein levels in with CT-2A and GL261 cells cluttered for 2 days in FCS or LPDS supplemented media. […] P values were determined by two-sided Student's t-tests (FIGS. 11B-E and 11I-K) or by one-way ANOVA, followed by Fisher's LSD post-hoc analysis (FIGS. 11G-H). *P<0.05, **P<0.01, ***P<0.001.
GL261, CT-2A, or astrocytes were seeded at a density of 1.5×10^5 cells per well in a 6-well plate. […] Microglial cell death was determined by LDH Assay (Sigma-Aldrich, #4744934001) according to the manufacturer's instructions. […]

The test system of assay [2] is GL261 and CT-2A glioma cells. Description: Cell viability assay (Annexin V/DAPI FACS) of glioma cells. It counts as cell-based, mouse. Also on record: glioma viability: dose or concentration left out as unconfirmed. To be noted: lovastatin, 3 day treatment; CT-2A and GL261; FIGS. 11G-H. As to the method:
FIGS. 5A-N illustrate that astrocyte-derived cholesterol supports glioma survival. (FIGS. 5A-D) Real-time changes in the ECAR (FIGS. 5A-B) and oxygen consumption rate (OCR) (FIGS. 5C-D) of GL261 glioma cells, cultured in media supplemented with full serum (FCS, fetal calf serum) or lipoprotein-deprived serum (LPDS, Lipoprotein-deficient serum) for 18 hours and measured using Seahorse. Oligo, oligomycin; FCCP, carbonyl cyanide4-(trifluoromethoxy) phenylhydrazone; R/A, rotenone plus antimycin A; 2-DG, 2-deoxy-d-glucose. Glycolysis, glycolytic capacity and glycolytic reserve were extracted from the ECAR reading, and basal respiration, adenosine triphosphate (ATP) production, Maximal respiration, and spare respiratory capacity were determined based on OCR. Data are representative of two independent experiments (n=6 technical replicates per experiment). (FIG. 5E) Percentage of cell death of GL261 and CT-2A glioma cells, or primary astrocytes, cultured in FCS or LPDS for 5 days; as determined by Annexin-V assay (n=5 independent experiments). […] Representative flow cytometry plots of Annexin-V/DAPI staining from each group are shown in FIG. 5F and quantification analyses of cholesterol rescue are in FIG. 5G (n=5 biologically independent experiments). (FIGS. 5H-K) Representative images and quantification of LDLR expression (Immunoblot, FIGS. 5H-I) and cell death via FACS analysis of Annexin V/DAPI staining (FIGS. 5J-K) in response to endogenous LXR agonists (24-OHC) or Mock (DMSO) treatment in GL261 and CT-2A cells (n=3 biologically independent experiments). […] (FIGS. 5L-M) Representative flow cytometry plots of murine GL261 and CT-2A glioma cells co-cultured for 5 days with primary mouse astrocytes are shown in FIG. 5L and quantification analyses in FIG. 5M (n=4 biologically independent experiments). (FIG. 5N) quantification analyses of human U87EGFRvIII (U87) glioma cells co-cultured with human primary astrocytes for 5 days (n=3 biologically independent experiments). […]

The mark [3] stands for this setting: summary statement on ABCA1 inhibitors, FIGS. 16A-E.

Chain of cholesterol transporter ABCA1 (O95477 whole entry): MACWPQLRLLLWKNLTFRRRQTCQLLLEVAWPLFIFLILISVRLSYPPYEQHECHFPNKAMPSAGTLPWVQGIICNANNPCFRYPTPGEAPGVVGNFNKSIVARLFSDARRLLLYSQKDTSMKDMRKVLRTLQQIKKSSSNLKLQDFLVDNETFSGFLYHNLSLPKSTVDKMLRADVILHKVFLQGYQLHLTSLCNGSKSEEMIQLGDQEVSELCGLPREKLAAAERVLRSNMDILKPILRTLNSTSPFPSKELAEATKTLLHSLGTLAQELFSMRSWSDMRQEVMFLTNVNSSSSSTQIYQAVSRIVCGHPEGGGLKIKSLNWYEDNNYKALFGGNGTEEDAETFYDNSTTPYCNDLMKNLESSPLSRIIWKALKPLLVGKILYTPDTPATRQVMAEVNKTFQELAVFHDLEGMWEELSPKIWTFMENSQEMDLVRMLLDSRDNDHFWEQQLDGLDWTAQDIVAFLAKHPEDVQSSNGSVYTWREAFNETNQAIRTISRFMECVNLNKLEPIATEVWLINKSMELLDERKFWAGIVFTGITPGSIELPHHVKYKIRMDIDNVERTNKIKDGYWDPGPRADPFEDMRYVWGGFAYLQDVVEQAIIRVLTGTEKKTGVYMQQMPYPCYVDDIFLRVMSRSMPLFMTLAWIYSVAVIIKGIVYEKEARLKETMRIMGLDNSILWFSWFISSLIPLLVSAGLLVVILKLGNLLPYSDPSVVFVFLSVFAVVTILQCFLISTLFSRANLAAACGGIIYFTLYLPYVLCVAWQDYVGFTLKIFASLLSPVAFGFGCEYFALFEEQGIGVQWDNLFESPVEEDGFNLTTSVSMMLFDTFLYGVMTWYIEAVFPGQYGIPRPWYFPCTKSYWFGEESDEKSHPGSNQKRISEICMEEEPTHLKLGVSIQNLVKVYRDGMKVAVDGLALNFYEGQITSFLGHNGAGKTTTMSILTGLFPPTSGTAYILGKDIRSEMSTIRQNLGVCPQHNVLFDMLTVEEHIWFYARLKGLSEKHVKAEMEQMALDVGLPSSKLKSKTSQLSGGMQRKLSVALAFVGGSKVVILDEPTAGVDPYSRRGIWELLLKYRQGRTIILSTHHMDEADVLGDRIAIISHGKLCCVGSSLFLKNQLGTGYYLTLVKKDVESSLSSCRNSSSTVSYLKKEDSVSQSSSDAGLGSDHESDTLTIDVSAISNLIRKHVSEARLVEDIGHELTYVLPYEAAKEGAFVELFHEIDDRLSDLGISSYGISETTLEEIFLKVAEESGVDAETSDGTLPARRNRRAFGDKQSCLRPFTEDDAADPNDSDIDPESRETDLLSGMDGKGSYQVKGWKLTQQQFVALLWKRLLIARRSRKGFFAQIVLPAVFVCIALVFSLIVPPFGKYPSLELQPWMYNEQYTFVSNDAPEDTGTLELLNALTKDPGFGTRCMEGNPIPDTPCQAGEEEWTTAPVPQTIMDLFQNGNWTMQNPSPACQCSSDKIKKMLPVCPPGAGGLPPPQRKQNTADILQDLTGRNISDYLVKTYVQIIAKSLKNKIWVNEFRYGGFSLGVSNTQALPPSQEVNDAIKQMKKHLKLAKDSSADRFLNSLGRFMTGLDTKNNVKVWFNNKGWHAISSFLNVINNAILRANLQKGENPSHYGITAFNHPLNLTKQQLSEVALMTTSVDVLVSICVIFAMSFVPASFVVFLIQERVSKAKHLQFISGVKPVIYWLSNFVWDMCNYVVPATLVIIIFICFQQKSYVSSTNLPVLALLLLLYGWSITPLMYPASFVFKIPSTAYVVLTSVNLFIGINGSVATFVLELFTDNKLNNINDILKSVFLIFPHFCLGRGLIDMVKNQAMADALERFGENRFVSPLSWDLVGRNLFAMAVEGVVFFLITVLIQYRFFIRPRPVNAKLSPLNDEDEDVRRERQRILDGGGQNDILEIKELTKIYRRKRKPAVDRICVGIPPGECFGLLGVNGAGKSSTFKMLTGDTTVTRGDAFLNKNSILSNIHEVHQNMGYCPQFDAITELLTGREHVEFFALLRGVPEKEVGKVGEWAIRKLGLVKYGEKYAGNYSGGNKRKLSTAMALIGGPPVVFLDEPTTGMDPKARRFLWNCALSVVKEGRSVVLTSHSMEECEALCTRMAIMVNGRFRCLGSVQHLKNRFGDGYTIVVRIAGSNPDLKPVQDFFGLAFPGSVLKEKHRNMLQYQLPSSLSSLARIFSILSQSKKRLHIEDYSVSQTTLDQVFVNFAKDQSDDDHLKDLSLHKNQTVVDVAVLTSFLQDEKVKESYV
Procedure for GL261-Luc2 glioma (GBM): WT mice were IC implanted with GL261-Luc2 cells. […] (FIG. 20A) Tumor growth curve as determined by IVIS, (FIG. 20B) mice weight loss, and (FIG. 20C) Kaplan-Meier curves assess overall survival. p-value by Two-way ANOVA. Data represent Mean±SEM, 8 mice/group.
For intracranial mouse glioma, mice were anesthetized, positioned in a Stereotaxic Alignment System, and injected with 1.5×10^4 GL261 or CT-2A cells in 2 μl of DMEM. Injections were made to the right frontal lobe, approximately 2.5 mm lateral and 0.1 mm caudal from bregma at a depth of 3 mm. In-vivo bioluminescence imaging, following XenoLight D-luciferin Potassium Salt administration (150 mg/kg) i.p. administration, was determined using IVIS Spectrum system (PerkinElmer). Ganciclovir (GCV, Cymevene, Roche #SAP-10051872; 25 mg/kg), Diphtheria-toxin (DT, Sigma-Aldrich, #D0564; 1100 ng/mice), or vehicle control (PBS) were administered daily following tumor establishment (day 10), as previously described (Mayo, L., et al. Nat Med (2014) 20: 1147-1156). CD8^+ T cell depletion was performed using an anti-CD8 monoclonal antibody (53.6-7, Bioxcell) or an isotype control monoclonal antibody (2A3, Bioxcell), as previously described (Takenaka, M. C. et al. Control of tumor-associated macrophages and T cells in glioblastoma via AHR and CD39. Nat Neurosci 22, 729-740 (2019)). GBM-bearing mice were intraperitoneally injected (0.1 mg/mouse) with an anti-CD8 or an isotype control mAbs, 1 day before, and 7 days after, GCV administration. CD8 T-cell depletion was validated by FACS analysis using a Sony SH800 FACS instrument (Sony Biotechnology). Data analysis was performed using FlowJo v10 (TreeStar, USA). The following reagents were used for analysis: anti-CD45 (1:100; 30-F11, Biolegend, #103106), anti-CD3□ (1:50; 145-2C11, Biolegend #100335), and anti-CD8a (1:100; 53-6.7, Biolegend, #100765).

With `CC(C)(Sc1cc(C(C)(C)C)c(O)c(C(C)(C)C)c1)Sc1cc(C(C)(C)C)c(O)c(C(C)(C)C)c1` [Probucol], the “therapeutic effect (potency) of TMZ” value with GL261-Luc2 glioma (GBM) (probucol 30 mg/kg combined with TMZ 2.5 mg/kg, GL261-Luc2 bearing mice) is given as “enhances the potency of TMZ therapeutic; also recorded: dramatically enhanced the therapeutic effect of TMZ”. Further, the GBM pathogenicity result in the assay on GL261-Luc2 glioma (GBM) (probucol 30 mg/kg, limited course (two days before, during and two days after TMZ course), from day 10) is reported as “able to halt GBM pathogenicity”. Moreover, in assay [1], the ABCA1 inhibitor potency entry is listed as “strong”. The “tumor growth (IVIS)” value in the assay on GL261 glioma (GBM) (GL261-bearing WT mice) is “attenuates GBM progression”. Moreover, in the assay with GL261 glioma (GBM) (GL261-bearing WT mice, listed as probucol), the “tumor growth (IVIS)” value was “significantly attenuated”. Also, the “weight loss associated with tumor burden” value in the assay on GL261 glioma (GBM) (GL261-bearing WT mice, Probucol 30 mg/kg daily from day 10 vs vehicle, FIG. 16C) is given as “significantly attenuated”. Also, the “survival (Kaplan-Meier)” value with GL261 glioma (GBM) (GL261-bearing WT mice, Probucol 30 mg/kg daily from day 10 vs vehicle, FIG. 16D) was “improved”. In the assay with GL261 glioma (GBM) (setting [3]), the “survival of subjects having GBM in-vivo” value was “prolonging survival”, the “tumor size of subjects having GBM in-vivo” value is given as “decreasing tumor size” and the “weight loss of subjects having GBM in-vivo” value was “preventing weight loss”.

As for `CC[C@H](C)C(=O)O[C@H]1C[C@@H](C)C=C2C=C[C@H](C)[C@H](CC[C@@H]3C[C@@H](O)CC(=O)O3)[C@H]21` [lovastatin, Lovastatin], the “cell death of primary astrocytes” value in the assay with primary astrocytes is “significant cell death of primary astrocytes”. The glioma viability entry in assay [2] is “did not affect glioma viability”.
